Read-outs that look alike come from different tables or passages of the source.
Experiments:
[1] = test system: Key Broadleaf Weed and Crop Species; experiment: Post-emergent Test II herbicidal activity (Table 15); type: in vivo; settings: post-emergence, 336 h, 14 d; for pest or weed control at 35 g/ha: 35 g ai/ha; for pest or weed control at 70 g/ha: 70 g ai/ha; for pest or weed control at 140 g/ha: 140 g ai/ha
Procedure, shortened: (§1)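 Plants grown in greenhouse (~15 h photoperiod, 23-29 °C day, 22-28 °C night) to first or second true leaf stage, then sprayed post-emergence at 187 L/ha with a high rate and 1/2×, 1/4×, 1/8× and 1/16× dilutions. Injury scored visually after 14 d, 0-100% versus untreated plants.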

[2] = test system: Key Grass and Sedge Weeds as well as Grass Crops; experiment: Post-emergent Test II herbicidal activity (Table 16); type: in vivo; settings: post-emergence, 336 h, 14 d; for pest or weed control at 35 g/ha: 35 g ai/ha; for pest or weed control at 70 g/ha: 70 g ai/ha; for pest or weed control at 140 g/ha: 140 g ai/ha
Procedure, shortened: as §1

[3] = Abutilon theophrasti, velvetleaf (Abutilon theophrasti), read-out: Visual Growth Reduction (%) 14 Days After Application, ABUTH
[4] = Amaranthus retroflexus, redroot pigweed (Amaranthus retroflexus), read-out: Visual Growth Reduction (%) 14 Days After Application, AMARE
[5] = Brassica napus, oilseed rape, canola (Brassica napus), read-out: Visual Growth Reduction (%) 14 Days After Application, BRSNN
[6] = Chenopodium album, lambsquarters (Chenopodium album), read-out: Visual Growth Reduction (%) 14 Days After Application, CHEAL
[7] = Euphorbia heterophylla, wild poinsettia (Euphorbia heterophylla), read-out: Visual Growth Reduction (%) 14 Days After Application, EPHHL
[8] = Helianthus annuus, sunflower (Helianthus annuus), read-out: Visual Growth Reduction (%) 14 Days After Application, HELAN
[9] = Cyperus esculentus, yellow nutsedge (Cyperus esculentus), read-out: Visual Growth Reduction (%) 14 Days After Application, CYPES
[10] = Oryza sativa, rice (Oryza sativa), read-out: Visual Growth Reduction (%) 14 Days After Application, ORYSA
[11] = Setaria faberi, giant foxtail (Setaria faberi), read-out: Visual Growth Reduction (%) 14 Days After Application, SETFA
[12] = Triticum aestivum, wheat, spring (Triticum aestivum), read-out: Visual Growth Reduction (%) 14 Days After Application, TRZAS
[13] = Zea mays, maize, corn (Zea mays), read-out: Visual Growth Reduction (%) 14 Days After Application, ZEAMX
[14] = Echinochloa crus-galli, barnyardgrass (Echinochloa crus-galli), read-out: Visual Growth Reduction (%) 14 Days After Application, ECHCG

Row | SMILES | pest or weed control at 35 g/ha [1, 3] [%] | pest or weed control at 70 g/ha [1, 3] [%] | pest or weed control at 140 g/ha [1, 3] [%] | pest or weed control at 35 g/ha [1, 4] [%] | pest or weed control at 70 g/ha [1, 4] [%] | pest or weed control at 140 g/ha [1, 4] [%] | pest or weed control at 35 g/ha [1, 5] [%] | pest or weed control at 70 g/ha [1, 5] [%] | pest or weed control at 140 g/ha [1, 5] [%] | pest or weed control at 35 g/ha [1, 6] [%] | pest or weed control at 70 g/ha [1, 6] [%] | pest or weed control at 140 g/ha [1, 6] [%] | pest or weed control at 35 g/ha [1, 7] [%] | pest or weed control at 70 g/ha [1, 7] [%] | pest or weed control at 140 g/ha [1, 7] [%] | pest or weed control at 35 g/ha [1, 8] [%] | pest or weed control at 70 g/ha [1, 8] [%] | pest or weed control at 140 g/ha [1, 8] [%] | pest or weed control at 35 g/ha [2, 9] [%] | pest or weed control at 70 g/ha [2, 9] [%] | further results
1 | COC(=O)c1nc(-c2ccc(Cl)c3occc23)nc(N)c1Cl [Compound 2.20] | 45 to 59 | 60 to 74 | 60 to 74 | 95 to 100 | 95 to 100 | 95 to 100 | 0 to 29 | 0 to 29 | 30 to 44 | 85 to 94 | 95 to 100 | 95 to 100 | 0 to 29 | 0 to 29 | 0 to 29 | 85 to 94 | 95 to 100 | 95 to 100 | 0 to 29 | 0 to 29 | pest or weed control at 140 g/ha [2, 9]: 0 to 29%; pest or weed control at 35 g/ha [2, 10]: 0 to 29%; pest or weed control at 70 g/ha [2, 10]: 0 to 29%; pest or weed control at 140 g/ha [2, 10]: 0 to 29%; pest or weed control at 35 g/ha [2, 11]: 0 to 29%; pest or weed control at 70 g/ha [2, 11]: 30 to 44%; pest or weed control at 140 g/ha [2, 11]: 60 to 74%; pest or weed control at 35 g/ha [2, 12]: 0 to 29%; pest or weed control at 70 g/ha [2, 12]: 0 to 29%; pest or weed control at 140 g/ha [2, 12]: 0 to 29%; pest or weed control at 35 g/ha [2, 13]: 0 to 29%; pest or weed control at 70 g/ha [2, 13]: 0 to 29%; pest or weed control at 140 g/ha [2, 13]: 0 to 29%
2 | C=Cc1c(C(=O)O)nc(-c2ccc3cc[nH]c3c2F)c(F)c1N [Compound 1.19] | 95 to 100 | 95 to 100 | 95 to 100 | 95 to 100 | 95 to 100 | 95 to 100 | 95 to 100 | 95 to 100 | 95 to 100 | 95 to 100 | 95 to 100 | 95 to 100 | 95 to 100 | 95 to 100 | 95 to 100 | 60 to 74 | 75 to 84 | 95 to 100 | 85 to 94 | 75 to 84 | pest or weed control at 140 g/ha [2, 9]: 95 to 100%; pest or weed control at 35 g/ha [2, 14]: 85 to 94%; pest or weed control at 70 g/ha [2, 14]: 85 to 94%; pest or weed control at 140 g/ha [2, 14]: 95 to 100%; pest or weed control at 35 g/ha [2, 10]: 30 to 44%; pest or weed control at 70 g/ha [2, 10]: 45 to 59%; pest or weed control at 140 g/ha [2, 10]: 60 to 74%; pest or weed control at 35 g/ha [2, 11]: 60 to 74%; pest or weed control at 70 g/ha [2, 11]: 75 to 84%; pest or weed control at 140 g/ha [2, 11]: 85 to 94%; pest or weed control at 35 g/ha [2, 12]: 60 to 74%; pest or weed control at 70 g/ha [2, 12]: 75 to 84%; pest or weed control at 140 g/ha [2, 12]: 75 to 84%; pest or weed control at 35 g/ha [2, 13]: 60 to 74%; pest or weed control at 70 g/ha [2, 13]: 60 to 74%; pest or weed control at 140 g/ha [2, 13]: 85 to 94%

Source: patent publication US20170050957A1, “4-AMINO-6-(HETEROCYCLIC)PICOLINATES AND 6-AMINO-2-(HETEROCYCLIC)PYRIMIDINE-4-CARBOXYLATES AND THEIR USE AS HERBICIDES” (Dow AgroSciences LLC, priority 2013, published 2017)
